In assay [1] the target is T1, TrmDEC (Escherichia coli, UniProt P0A873, Y86L).
T1 construct: gene trmD; full-length, N-terminal His tag (pET28b), expressed in E. coli BL21(DE3), tag kept
T1 sequence (P0A873 2-255 Y86L): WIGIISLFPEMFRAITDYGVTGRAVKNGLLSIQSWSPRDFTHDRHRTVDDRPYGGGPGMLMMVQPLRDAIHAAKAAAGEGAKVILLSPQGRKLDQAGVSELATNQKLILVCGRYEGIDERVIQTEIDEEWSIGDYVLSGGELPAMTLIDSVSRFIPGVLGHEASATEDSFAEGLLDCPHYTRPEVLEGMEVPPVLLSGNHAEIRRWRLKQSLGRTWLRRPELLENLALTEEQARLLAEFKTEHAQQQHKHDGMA
The assay can be described thus: ITC. In kind it is binding.

In assay [2] the target is T2, TrmDEC (Escherichia coli, UniProt P0A873, Y86F).
T2 construct: gene trmD; full-length, N-terminal His tag (pET28b), expressed in E. coli BL21(DE3), tag kept
T2 sequence (P0A873 2-255 Y86F): T1 sequence (P0A873 2-255 Y86L) with L85F
As to the kind of experiment: ITC. In kind it is binding.

Residue numbers refer to the chain shown, from its start. pKd: −log10 of the molar value.

Regarding `C[S+](CC[C@H](N)C(=O)O)C[C@H]1O[C@@H](n2cnc3c(N)ncnc32)[C@H](O)[C@@H]1O` (some centres unmarked) [AdoMet], the pKd is 4.16 at TrmDEC [1] and 4.55 at TrmDEC [2].

For orientation: pKd means the negative decadic logarithm of the Kd, by convention in mol/L.
